Test results reported in US11751573B2, “Seaweed composition” (priority 2017, dated 2023).

Columns and labels:
[1] = system: Phaseolus lunatus callus; conditions: cited from earlier work; for EC50: Phaseolus lunatus callus, Mok et al. 2005, read-out: concentration at which one half of the maximal growth is achieved; for MINIMUM CONCENTRATION / OPTIMUM CONCENTRATION: P. lunatus callus bioassay, Matsbuara 1990
[2] = system: tobacco callus; conditions: tobacco callus bioassay, cited from earlier work; for minimum concentrations required for activity compared to tZ and BA: fold worse; for MINIMUM CONCENTRATION / OPTIMUM CONCENTRATION: Matsubara 1990, Letham et al. 1983
[3] = system: Tobacco callus/P. lunatus callus; test: trans-Zeatin equivalents based on Tobacco callus/P. lunatus callus bioassay; type: cell-based; conditions: for nM in tZ EQUIVALENTS IN KELPAK / nM in tZ E[…] KELPAK: contribution of the cytokinin in Kelpak
From the text: It can be seen from Table 4 that there is significant variation in activity between the cytokinins. The minimum concentration required for an effect and the optimum concentration in the tobacco callus assay are much better for iP and tZ than the other cytokinins, with BA still quite good.
The activity of pT in this assay has not been reported.
Nevertheless, the response of plant growth to different cytokinins can vary depending on the specific circumstances.

[4] = system: Phaseolus vulgaris callus; conditions: Phaseolus vulgaris callus assay; Matsbuara 1990; cited from earlier work
[5] = system: Pea test; conditions: used to make it equivalent to IAA; Pilet 1971; cited from earlier work
[6] = contribution of the cytokinin in Composition 1
[7] = contribution of the cytokinin in Composition 2

For `Oc1cccc(CNc2ncnc3nc[nH]c23)c1` [mT, meta-topolin], the EC50 [1] is given as roughly 50 nM, the “optimum concentration compared to tZ” value ([2]; Holub et al. 1998) is given as “similar” and the “minimum concentrations required for activity compared to tZ and BA” value ([2]; Holub et al. 1998) is given as “similar”.
In the case of `OC[C@H]1O[C@@H](n2cnc3c(NCc4ccccc4)ncnc32)[C@H](O)[C@@H]1O` [N6-benzyladenosine (BAR), N6-benzyladenosine], the “nM in tZ EQUIVALENTS IN KELPAK” value [3] is given as 0.0001 nM, the “MINIMUM CONCENTRATION” value [2] is given as 0.02 µM and the “OPTIMUM CONCENTRATION” value [2] is given as 1 µM.
For `Oc1ccccc1CNc1ncnc2nc[nH]c12` [ortho-topolin (oT), ortho-topolin], the “nM in tZ EQUIVALENTS IN KELPAK” value [3] is listed as 0.002 nM, the EC50 [1] is listed as roughly 1000 nM and the “minimum concentrations required for activity compared to tZ and BA” value ([2]; Holub et al. 1998) is listed as 100 fold.
In the case of `CC(CO)CCNc1ncnc2nc[nH]c12` (stereo not drawn) [dihydrozeatin (DHZ), dihydrozeatin], the “MINIMUM CONCENTRATION” value [2] is listed as 0.01 µM and the “OPTIMUM CONCENTRATION” value [2] is listed as 0.4 µM.
For `c1coc(CNc2ncnc3[nH]cnc23)c1` [kinetin (K), kinetin], the “MINIMUM CONCENTRATION” value [2] is listed as 0.001 µM and the “OPTIMUM CONCENTRATION” value [2] is listed as 0.1 µM.
For `OC[C@H]1O[C@@H](n2cnc3c(NCc4ccccc4O)ncnc32)[C@H](O)[C@@H]1O` [oTR, ortho-topolin riboside], the “minimum concentrations required for activity compared to tZ and BA” value ([2]; Holub et al. 1998) is listed as 100 fold.
For trans-zeatin riboside-O-glucoside, the “nM in tZ E[…] KELPAK” value [3] is given as 0.0005 nM and the “MINIMUM CONCENTRATION” value [2] is given as 0.003 µM.
For `C/C(=C\CNc1ncnc2c1ncn2[C@@H]1O[C@H](CO)[C@@H](O)[C@H]1O)CO` (relative stereo) [trans-zeatin riboside (tZR), trans-zeatin riboside], the MINIMUM CONCENTRATION [1] is given as 0.003 µM, the OPTIMUM CONCENTRATION [1] is given as 0.1 µM and the “MINIMUM CONCENTRATION” value [2] is given as 0.003 µM. The “OPTIMUM CONCENTRATION” value [2] was 0.3 µM, the MINIMUM CONCENTRATION [4] was 0.03 µM and the OPTIMUM CONCENTRATION [4] was 3 µM.
For `CC(CCNc1ncnc2nc[nH]c12)CO[C@@H]1O[C@H](CO)[C@@H](O)[C@H](O)[C@H]1O` (stereo partly drawn) [Dihydrozeatin-O-glucoside (DHZOG), Dihydrozeatin-O-glucoside], the “MINIMUM CONCENTRATION” value [2] is given as 0.001 µM.
In the case of `CC(CCNc1ncnc2c1ncn2C1OC(CO)C(O)C1O)COC1OC(CO)C(O)C(O)C1O` (stereo not drawn) [dihydrozeatin riboside-O-glucoside], the “nM in tZ EQUIVALENTS IN KELPAK” value [3] is listed as 0.00003 nM and the “MINIMUM CONCENTRATION” value [2] is listed as 0.002 µM.
In the case of `CC(CO)CCNc1ncnc2c1ncn2[C@@H]1O[C@H](CO)[C@@H](O)[C@H]1O` (stereo partly drawn) [dihydrozeatin riboside (DHZR), dihydrozeatin riboside], the “nM in tZ EQUIVALENTS IN KELPAK” value [3] is given as 0.00001 nM, the “MINIMUM CONCENTRATION” value [2] is given as 0.01 µM and the “OPTIMUM CONCENTRATION” value [2] is given as 4 µM.
In the case of `C/C(=C\CNc1ncnc2nc[nH]c12)CO` [trans-zeatin (tZ), trans-zeatin], the “nM in tZ E[…] KELPAK” value [3] is listed as 0.29 nM, the MINIMUM CONCENTRATION [1] is listed as 0.001 µM and the OPTIMUM CONCENTRATION [1] is listed as 0.3 µM. The EC50 [1] was roughly 20 nM, the “MINIMUM CONCENTRATION” value [2] was 0.0001 µM and the “OPTIMUM CONCENTRATION” value [2] was 0.004 to 0.05 µM. The MINIMUM CONCENTRATION [4] was 0.0301 µM and the OPTIMUM CONCENTRATION [4] was 3 µM.
In the case of `C/C(=C/CNc1ncnc2nc[nH]c12)CO` [cis-zeatin (cZ), cis-zeatin], the “nM in tZ E[…] ROOM T[…] (COMPOSITION 1)” value [3, 6] is reported as 0.03 nM, the “nM in tZ E[…] 90° C. EXTRACT (COMPOSITION 2)” value [3, 7] is reported as 0.03 nM and the “nM in tZ E[…] KELPAK” value [3] is reported as 0.00008 nM. The MINIMUM CONCENTRATION [1] was 0.03 µM, the OPTIMUM CONCENTRATION [1] was 3 µM and the EC50 [1] was roughly 300 nM. The “MINIMUM CONCENTRATION” value [2] was 0.03 µM, the “OPTIMUM CONCENTRATION” value [2] was 0.5 µM and the MINIMUM CONCENTRATION [4] was 0.01 µM. The OPTIMUM CONCENTRATION [4] was 3 µM.
For “trans-zeatin-O-glucoside [trans-zeatin-O-glucoside (tZOG)]”, the “nM in tZ E[…] KELPAK” value [3] is listed as 3.6 nM and the “MINIMUM CONCENTRATION” value [2] is listed as 0.001 µM.
For `c1ccc(CNc2ncnc3nc[nH]c23)cc1` [N6-benzyladenine (BA), N6-benzyladenine], the “nM in tZ EQUIVALENTS IN 90° C. EXTRACT (COMPOSITION 2)” value [3, 7] is listed as 0.0002 nM, the “nM in tZ EQUIVALENTS IN KELPAK” value [3] is listed as 0.01 nM and the MINIMUM CONCENTRATION [1] is listed as 0.01 µM. For the same molecule, the OPTIMUM CONCENTRATION [1] was 3 µM, the EC50 [1] was roughly 40 nM and the “MINIMUM CONCENTRATION” value [2] was 0.0008 µM. For the same molecule, the “OPTIMUM CONCENTRATION” value [2] was 0.07 µM and the MINIMUM CONCENTRATION [4] was 0.001 µM.
In the case of `COC(=O)C(=O)c1c[nH]c2ccccc12` [IGAMe, indole-3-glyoxylic acid methyl ester], the “activity relative to IAA” value [5] is given as 1/28.
For `Oc1ccc(CNc2ncnc3nc[nH]c23)cc1` [para-topolin (pT), para-topolin], the “nM in tZ EQUIVALENTS IN ROOM TEMPERATURE EXTRACT (COMPOSITION 1)” value [3, 6] is given as 0.0001 nM, the “nM in tZ EQUIVALENTS IN 90° C. EXTRACT (COMPOSITION 2)” value [3, 7] is given as 0.09 nM and the EC50 [1] is given as roughly 30000 nM.
In the case of “trans-zeatin-9-glucoside [trans-zeatin-9-glucoside (tZ9G)]”, the “MINIMUM CONCENTRATION” value [2] is given as greater than 50 µM.
In the case of “cis-zeatin riboside [cis-zeatin riboside (cZR)]”, the “MINIMUM CONCENTRATION” value [2] is listed as 0.03 µM and the “OPTIMUM CONCENTRATION” value [2] is listed as 0.3 µM.
